Results reported in US8680047B2, “Fas peptide mimetics and uses thereof” (The Trustees of the University of Pennsylvania, priority 2002, dated 2014).
Positions of bridges follow the written chain, without caps; N, C: chain ends. Residues, ends and D or L forms follow the SMILES beside them. No end group written: not given here.

Key:
[1] = tested on: Con A-induced hepatitis model; experiment: Con A-induced hepatitis model, serum transaminase activity; type: in vivo, C57BL/6 mice; conditions: IP pretreatment 30 min before Con A iv
Description: The biological activity of mimetic Kp7-6 was measured in vivo. FasL induced apoptosis is one of the primary and dominant pathways by which liver cells undergo apoptosis under various conditions such as viral infection, drug toxicity and other lesions. (Kakinuma, C. et al. Toxicol Pathol 27, 412-420 (1999); Famularo, G., et al. Med Hypotheses 53, 50-62 (1999); Gantner et al. supra). […] (Zhang, H. et al. Nat Biotechnol 18, 862-867 (2000); Song, E. et al. Nat Med (2003)). The antagonistic effect of Kp7-6 in vivo was tested using the Con A-induced hepatitis model. C57BL/6 mice were pretreated intraperitoneally (IP) with anti-FasL monoclonal antibody, Fas mimetic peptides or saline. After 30 min, animals were challenged intravenously with Con A or saline. The induction of liver damage and inflammatory hepatitis was evaluated by measuring the serum activities of alanine aminotransferase (ALT) and aspartate aminotransferase (AST) 12 h after Con A treatment.
Administration of Con A and Measurement of Serum Transaminase Activity. […]
Blood samples were collected from mice at 12 h after Con A injection, and the serum was taken by centrifugation. Serum activities of alanine aminotransferase (ALT) and aspartate aminotransferase (AST) were measured by Lippi-Guidi's method (Iatrozyme TA-LQ: Dia-Iatron Inc., Tokyo, Japan). […]

FasL = target: T1, FasL (Homo sapiens, UniProt P48023); experiment: Surface plasmon resonance (BIAcore) analysis, immobilized FasL-Flag; type: binding; conditions: FasL-Flag immobilized on sensor chip, 25° C.
T1 construct: Flag-tagged soluble human Fas ligand (FasL-Flag); purchased Kamiya Biomedical (Seattle, Wash.)
T1 sequence (P48023 130-281 limits assumed): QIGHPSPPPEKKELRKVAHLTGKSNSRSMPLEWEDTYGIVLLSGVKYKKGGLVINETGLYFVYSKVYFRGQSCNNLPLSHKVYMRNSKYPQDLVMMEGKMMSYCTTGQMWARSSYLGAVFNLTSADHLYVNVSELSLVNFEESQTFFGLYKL
Description: The kinetics of binding of Kp7-6, which mediated the best inhibitory activity to FasL, was performed using surface plasmon resonance (BIAcore™) analysis. […] The koff value is considered as an important indicator in the development of therapeutics with biological activity (Benveniste, M. et al. Br J Pharmacol 104, 207-221 (1991); Yiallouros, I. et al. Biochem J 331, 375-379 (1998)), and generally correlates with potent biological effects. (Moosmayer, D. et al. J Interferon Cytokine Res 16, 471-477 (1996)). […] (Berezov, A. et al. J Med Chem 44, 2565-2574 (2001)).
To assess the specificity of Kp7-6 binding interaction, Fas, FasL and TNFα were immobilized on a sensor chip. Kp7-6 bound to FasL but not to TNFα, which indicates Kp7-6 bound to FasL specifically (FIG. 3B). […] (Naismith, J. H. et al. Structure 4, 1251-1262 (1996)).
Biosensor analysis. All experiments were carried out on a BIAcore 3000 instrument (Biacore AG, Uppsala, Sweden) at 25° C. using PBS, pH 7.4, containing 0.005% surfactant P20 (Biacore AG) as the running buffer. FasL-Flag, Fas-Fc or TNFRI-Fc was immobilized on research-grade CM5 sensor chips (Biacore AG) using standard N-ethyl-N-dimethylaminopropyl carbodiimid/N-hydroxysuccinimide coupling. […] Data were analyzed with the BIA evaluation 3.0 software (Biacore AG). […]

[2] = tested on: FasL-sensitive Jurkat cells; experiment: FasL-induced cytotoxicity assay in Jurkat cells ([3H]-thymidine incorporation); type: cell-based, human; conditions: for inhibition of Fas-mediated cytotoxicity: Jurkat cells stimulated with soluble FasL-Flag, various concentrations of mimetic
Description: To evaluate the effect of mimetics on Fas-mediated cytotoxicity, FasL-sensitive Jurkat cells were stimulated with soluble FasL-Flag fusion protein in the presence or absence of various concentrations of mimetics. The inhibitory effects of mimetics on Fas-mediated cytotoxicity were consistent with the results of the FasL-binding inhibition (FIG. 4). […] A concentration of 1 mM Kp7-6 protected more than 90% cells from Fas-mediated cytotoxicity (FIG. 4). […] Large dose of Kp7-6 was used in this experiment for better signal-to-noise ratio. To determine if mimetics derived from other binding sites would potentially be able to interact synergistically to block the Kp7 surface, Kp7 was used in combination with mimetics.
Cytotoxicity assay. Twenty microliters of Jurkat cells at 1×10^5 cells/ml were plated in 96-well U-bottom plates. FasL-Flag (120 ng/ml in culture medium) was preincubated with equal volume of peptide sample in PBS for 1 h at 37° C., and 20 μl of mixture was added to each well. After an incubation period of 24 h, each culture was pulsed with 1 μCi of [^3H]-thymidine for 24 h before harvesting on glass fiber filters. Incorporation of the ^3H-thymidine obtained with culture medium alone and with 30 ng/ml of FasL was used as reference for 100% survival and 0% survival, respectively. Survival (%) by several doses of peptides was plotted. Incorporation of the radioactive label was measured by liquid scintillation counting (Wallac, Finland) and expressed as the arithmetic mean counts per minute (cpm) of triplicate cultures.

**Q.** For “YCNSTVCY (disulfide 2-7 (inferred)) [Kp1-1, exocyclic mimetic derived from Fas Kp1 loop]”, which “block of Con A-induced hepatic injury” value [1] is on record?
**A.** did not block the hepatic injury

**Q.** Which results are given for `N[C@@H](Cc1ccc(O)cc1)C(=O)N[C@H]1CSSC[C@@H](C(=O)N[C@@H](Cc2ccc(O)cc2)C(=O)O)NC(=O)[C@H](Cc2ccccc2)NC(=O)[C@H](Cc2c[nH]cn2)NC(=O)[C@H](CCC(=O)O)NC(=O)[C@H](CC(=O)O)NC1=O` [Kp7-6, YCDEHFCY] (H-YCDEHFCY-OH; disulfide 2-7; N-terminus and C-terminus assumed)?
**A.** koff (FasL; read-out: koff rate constant): 0.000765 s⁻¹; kon (FasL; read-out: kon rate constant): 68.5 M⁻¹ s⁻¹; cells protected from Fas-mediated cytotoxicity ([2]; 1 mM mimetic, Jurkat cells, FasL-Flag): more than 90%; inhibition of Fas-mediated cytotoxicity [2]: dose-dependent inhibitory activity

**Q.** How did the “block of Con A-induced hepatic injury” value [1] turn out when “YCDEHGLCY (disulfide 2-8 (inferred)) [Kp7-7, exocyclic mimetic derived from Fas Kp7 loop]” was run?
**A.** protection of mice against Con A induced liver injury

**Q.** With “YCDEQFCY (disulfide 2-7 (inferred)) [Kp7-10, exocyclic mimetic derived from Fas Kp7 loop]” as the molecule, how does the “synergy in combination with members of the Kp4 mimetics” value ([2]; Fas-mediated cytotoxicity, data not shown) read?
**A.** Neither Kp7-6 nor Kp7-10 used in combination with members of the Kp4 mimetics showed any significant synergy

**Q.** What about the “inhibition of Fas-mediated cytotoxicity” value [2] of the same molecule?
**A.** dose-dependent inhibition
